Source: article PMC4476799, “Englerin A Agonizes the TRPC4/C5 Cation Channels to Inhibit Tumor Cell Line Proliferation” (PLoS ONE, 2015)
Like-named read-outs stand apart in the source and are kept apart here.

Test system: cancer cell lines from the cancer cell line encyclopedia (CCLE)
Assay: Cell line profiling (CLiP) proliferation experiment
Format: cell-based
Conditions: Homo sapiens; for IC50: read-out: Crossing Point; for EC50: read-out: Inflection Point
Protocol: Compound profiling experiment and data analysis was performed as previously described. Data was imported and plotted using the Tibco Spotfire DXP application. Lines were categorized as sensitive, intermediate and refractory as follows: Amax<-40 & Inflection Point <2 ~ Sensitive, Amax>-20 & Inflection Point >10 ~ Refractory, all else were called Intermediate. Cancer Cell line HG-U133 Plus 2 data was processed and normalized as described. […] Five sets of refractory cell lines were generated from the pool of refractory cell lines trying to match the lineage composition of the set of sensitive cell lines. The limma package was used as previously described to perform the statistical comparison.

[1] = NCI-H1666, cell line NCI-H1666 (lung)
[2] = NCI-H1703, cell line NCI-H1703 (lung)
[3] = NCI-H1734, cell line NCI-H1734 (lung)
[4] = NCI-H1793, NCI-H1793, lung, adenocarcinoma
[5] = NCI-H2122, NCI-H2122, lung, adenocarcinoma
[6] = NCI-H2405, NCI-H2405, lung, adenocarcinoma
[7] = NCI-H3255, NCI-H3255, lung, adenocarcinoma
[8] = NUGC-4, NUGC-4, stomach, signet_ring_adenocarcinoma
[9] = OC-314, OC 314, ovary, serous_carcinoma
[10] = OCI-LY19, OCI-LY-19, haematopoietic_and_lymphoid_tissue, diffuse_large_B_cell_lymphoma
[11] = P12-Ichikawa, P12-ICHIKAWA cells
[12] = P12-Ichikawa, cell line P12-ICHIKAWA

CC(C)[C@@]12C[C@@H](O)[C@@](C)(O1)[C@@H]1CC[C@@H](C)[C@H]1[C@@H]2OC(=O)/C=C/c1ccccc1 [Englerin B]
IC50 [1]: 22.4 µM | EC50 [1]: 22.8 µM | IC50 (NCI-H1693, cell line NCI-H1693 (lung)): > 30 µM | IC50 (NCI-H1693, cell line NCI-H1693): > 30 µM | IC50 [2]: 14.9 µM | EC50 [2]: 23.1 µM | IC50 [3]: 19.6 µM | EC50 [3]: 19.6 µM | IC50 (NCI-H1792, NCI-H1792, lung, adenocarcinoma): 24.9 µM | IC50 (NCI-H1792, cell line NCI-H1792 (lung, adenocarcinoma)): 24.9 µM | IC50 [4]: > 30 µM | EC50 [4]: 22.5 µM | IC50 (NCI-H1793, cell line NCI-H1793): > 30 µM | IC50 (NCI-H1944, NCI-H1944, lung, adenocarcinoma): 15.8 µM | IC50 (NCI-H1944, cell line NCI-H1944): 15.8 µM | IC50 (NCI-H1975, NCI-H1975, lung, adenocarcinoma): > 30 µM | IC50 (NCI-H1975, NCI-H1975 cells): > 30 µM | IC50 [5]: > 30 µM | EC50 [5]: 10.6 µM | IC50 (NCI-H2122, cell line NCI-H2122): > 30 µM | IC50 (NCI-H2126, NCI-H2126, lung, adenocarcinoma): > 30 µM | IC50 (NCI-H2126, NCI-H2126 cells): > 30 µM | IC50 (NCI-H2170, NCI-H2170, lung, squamous_cell_carcinoma): > 30 µM | IC50 (NCI-H2170, cell line NCI-H2170): > 30 µM | IC50 [6]: > 30 µM | EC50 [6]: 14.6 µM | IC50 (NCI-H2405, cell line NCI-H2405): > 30 µM | IC50 (NCI-H2452, NCI-H2452, pleura, NS): > 30 µM | IC50 (NCI-H2452, cell line NCI-H2452): > 30 µM | IC50 [7]: 27 µM | EC50 [7]: 27 µM | IC50 (NCI-H3255, NCI-H3255 cells): 27 µM | EC50 (NCI-H3255, NCI-H3255 cells): 27 µM | IC50 (NUGC-3, NUGC-3, stomach, NS): > 30 µM | IC50 (NUGC-3, NUGC-3 cells): > 30 µM | IC50 [8]: 22 µM | EC50 [8]: 15.9 µM | EC50 (NUGC-4, NUGC-4 cells): 15.9 µM | IC50 (OAW-42, OAW42, ovary, adenocarcinoma): > 30 µM | IC50 (OAW-42, OAW42 cells): > 30 µM | IC50 [9]: > 30 µM | EC50 [9]: 14.9 µM | IC50 (OC-314, OC 314 cells): > 30 µM | EC50 (OC-314, OC 314 cells): 14.9 µM | IC50 (OCI-AML2, OCI-AML2, haematopoietic_and_lymphoid_tissue, acute_myeloid_leukaemia): 16.1 µM | IC50 (OCI-AML-3, OCI-AML3, haematopoietic_and_lymphoid_tissue, acute_myeloid_leukaemia): 18.2 µM | IC50 [10]: 14.2 µM | EC50 [10]: 14.8 µM | EC50 (OCI-LY19, OCI-LY-19 cells): 14.8 µM | IC50 (OCI-Ly3, OCI-LY3, haematopoietic_and_lymphoid_tissue, diffuse_large_B_cell_lymphoma): 13.3 µM | IC50 (OE19, OE19, oesophagus, adenocarcinoma): 20.4 µM | IC50 (OS-RC-2, OS-RC-2 cells): > 30 µM | EC50 (OS-RC-2, OS-RC-2 cells): 11.5 µM | IC50 (OS-RC-2, cell line OS-RC-2): > 30 µM | EC50 (OS-RC-2, cell line OS-RC-2): 11.5 µM | IC50 (OV-90, OV-90 cells): > 30 µM | IC50 (OV-90, cell line OV-90): > 30 µM | IC50 (OVCAR-4, cell line OVCAR-4): 29.6 µM | IC50 (OVCAR-8, cell line OVCAR-8): 20.7 µM | EC50 (OVSAHO, OVSAHO cells): 18.1 µM | IC50 (OVSAHO, cell line OVSAHO): 23.6 µM | EC50 (OVSAHO, cell line OVSAHO): 18.1 µM | IC50 (P3HR-1, cell line P3HR-1): 25.4 µM | IC50 [11]: 19.1 µM | EC50 [11]: 19.1 µM | IC50 [12]: 19.1 µM | EC50 [12]: 19.1 µM | IC50 (P31-FUJ, cell line P31/FUJ): 19.6 µM | IC50 (PANC-1, cell line PANC-1): 23.8 µM | IC50 (PANC-03-27, cell line Panc 03.27): 21.1 µM | IC50 (PC-14, cell line PC-14): 21.4 µM | EC50 (PF-382, PF-382 cells): 13.1 µM | IC50 (PF-382, cell line PF-382): 16.6 µM | EC50 (PF-382, cell line PF-382): 13.1 µM | IC50 (PLC-PRF-5, PLC/PRF/5 (liver)): 14.5 µM | IC50 (PLC-PRF-5, cell line PLC/PRF/5): 14.5 µM | IC50 (PSN1, cell line PSN1): 29.7 µM | IC50 (Panc 02.03, Panc 02.03 cells): > 30 µM | IC50 (Panc 02.03, cell line Panc 02.03): > 30 µM | IC50 (Panc 04.03, Panc 04.03 cells): > 30 µM | IC50 (Panc 04.03, cell line Panc 04.03): > 30 µM | EC50 (Panc1005, Panc 10.05 cells): 10.9 µM | IC50 (Panc1005, cell line Panc 10.05): 13 µM | EC50 (Panc1005, cell line Panc 10.05): 10.9 µM | IC50 (RD, RD cells): > 30 µM | IC50 (REH, Reh cells): 21.5 µM | EC50 (REH, Reh cells): 21.5 µM | IC50 (RPMI 8402, RPMI-8402 cells): 19.1 µM | IC50 (RPMI 8402, cell line RPMI-8402): 19.1 µM | IC50 (RPMI-7951, cell line RPMI-7951): 19.7 µM | EC50 (RPMI-7951, cell line RPMI-7951): 13.7 µM | IC50 (RPMI-8226, cell line RPMI 8226): 16.9 µM
